Results from patent US20140248291A1, “Modulation of Cellular Migration” (THE UAB RESEARCH FOUNDATION, priority 2011, published 2014).

Tested on: D54-MG-GFP cells
Experiment: slice invasion assay, acute rat brain slices
Assay type: cell-based, human
Experimental: Experiments were performed on male and female Sprague-Dawley rats and were approved by the University of Alabama Institutional Animal Care and Use Committee. 17-22 days old pups were decapitated. Meninges were stripped, brain was taken out and put in ice-cold bath ACSF. Tissue was sliced using Vibrotome 3000 sectioning system. 300 μm thick slices were let recover in ACSF for 1 hour at room temperature, followed by recovery in ACSF at 37° C. in […] for 1 hour. CD31 antibody (BD Biosciences, Pharminogen, San Diego, Calif.) that labels blood vessels was added during the latter recovery period. Slices were then transferred into transwell migration cell culture inserts (BD Biosciences, San Jose, Calif.) with 8 μm pores that were pretreated with Vitronectin and blocked as described above. 50,000 D54-EGFP MG cells were then seeded on top of the slices and allowed to migrate/invade into the tissue for 2 hours at 37° C. During that period, slices were treated with 1 μM BK, 1 μM BK+5 μM HOE-140 or 5 μM HOE-140 added to the bottom of migration chamber in order to create a concentration gradient, similar to in vitro migration/invasion assay (FIG. 5C). In control experiments, drug treatment was omitted. Following double washes with PBS, slices were fixed in 4% paraformaldehyde overnight at 4° C. The following day, samples were washed three times with PBS and the slices were mounted between two coverslips for imaging on an Olympus Fluoview confocal microscope with 60× objective.
Having established a dependence of migration and BK in vitro, the role of BK signaling in brain slices was examined, where the presence of neurons, glia and endothelial cells resemble the complex environment more reminiscent of the actual invasions of glioma cells in the human brain. To this end, acute brain slices of rat cortex, that can be maintained viable for many hours of investigation, were incubated with CD31 antibody to label blood vessels and seeded with D54-MG-GFP cells. Cells were allowed to migrate and invade for 2 hours in presence or absence of BK and in presence or absence of B2R antagonist HOE-140. The experimental set-up is illustrated in FIG. 5C. Representative confocal images of glioma cells invading into the slice in the presence of BK with and without antagonist HOE-140 added are shown in FIG. 5A, a, A, b and A, c. […] Similarly, most of the cells remained on the slices when treated only with B2R antagonist, as depicted in 40 μm cross-section in FIG. 5A, f. Data were analyzed by counting the number of glioma cells that attached to blood vessels in the presence of BK (77.4±4.1%, 391 cells analyzed), BK and antagonist HOE-140 (19.3±3.4%, 461 cells analyzed) or antagonist HOE-140 (42.7±4.2%, 452 cells analyzed) and compared with control (53.5±6.3%, 403 cells analyzed) where no drugs were added. […] Another important effect observed was that the glioma cells were invading deeper into the tissue in the presence of BK when compared to controls.

N=C(N)NCCCC(NC(=O)[C@H](N)CCCNC(=N)N)C(=O)N1CCC[C@H]1C(=O)N1C[C@H](O)C[C@H]1C(=O)NCC(=O)N[C@@H](Cc1cccs1)C(=O)N[C@@H](CO)C(=O)N1Cc2ccccc2C[C@@H]1C(=O)N1C2CCCCC2C[C@H]1C(=O)N[C@H](CCCNC(=N)N)C(=O)O (stereo partly drawn) [HOE-140, D-Arg-[Hyp^3, Thi^5, D-Tic^7, Oic^8]bradykinin]
glioma cells attached to blood vessels (1 μM BK + 5 μM HOE-140, 2 h, 461 cells analyzed): 19.3±3.4% | glioma cells attached to blood vessels (5 μM HOE-140 alone, 2 h, 452 cells analyzed): 42.7±4.2% | cells migrated up to 15 μm (HOE-140 alone): 29.8% | cells migrated up to 20 μm (HOE-140 alone): 14.4% | cells migrated up to 25 μm (HOE-140 alone): 3.5% | cells on top of the slice (HOE-140 alone): 51.9% | cells migrated up to 15 μm (HOE-140 in addition to BK): 25.7% | cells migrated up to 20 μm (HOE-140 in addition to BK): 15.4% | cells migrated up to 25 μm (HOE-140 in addition to BK): 6.4% | cells remained on the top of the slice (HOE-140 in addition to BK): 47.5%
